Data taken from publication PMC12737022, “Evaluations of Sex Differences in Dosimetry in Rats Following Perfluorohexanesulfonamide (PFHxSA) Oral Exposure” (Toxics, 2025).
Like-named read-outs stand apart in the source and are kept apart here.

Assays:
[1] = In vitro-in vivo extrapolation (IVIVE) to estimate Css, human; conditions: for Css (steady-state concentration) / CL renal: Human; for Css (steady-state concentration): IVIVE-derived, assumes 1 mg/kg/day exposure; for CL renal: non-metabolic, GFR x fub, read-out: Clrenal (renal clearance) (converted); for Predicted Css in humans higher than rats: cross-species IVIVE comparison
Experimental: Intrinsic hepatic clearance (Clint) and fraction unbound in plasma (fup) were calculated from the experimental point estimate data as described in Dobreniecki et al.. Steady-state concentrations (Css) were derived based on zero-order uptake of an assumed daily dose from the gut (assuming 100% intestinal bioavailability) but considering hepatic clearance and non-metabolic renal clearance. Renal clearance was calculated using the glomerular filtration rate (a species-dependent constant) and the fraction unbound in blood (fub), estimated by adjusting the experimental fup for blood/plasma partitioning. The Css calculations, along with underlying species-specific physiologic scalars, are detailed in SI Texts S6 and S7. […]
hepatocytes). In equation (C), the scalar 2000 is used to adjust the assay cell number to be consistent with units of 1 million cells in the Clint equation.
Text S7 In Vitro-In Vivo Extrapolation (IVIVE) Calculations
The pharmacokinetic equation used to estimate expected steady-state concentrations (Css) is based on zero-order uptake of a daily dose from the gut (assuming 100% bioavailability) with both nonmetabolic renal clearance (Clrenal) and hepatic clearance (Clhepatic) (Equation D). The chemical input rate (ko) is the product of the intake dosage and the model body weight; this represents the numerator of Equation D. The Clrenal calculation is shown in the first part of the denominator of Equation D; it is the product of the species-dependent glomerular filtration rate (GFR) and the unbound fraction in blood (fub) of the parent compound. The Clhepatic calculation is shown in the second part of the denominator of Equation D; it is the product of the species-dependent liver blood flow constant, the fub of the parent compound, and the experimentally derived intrinsic clearance (shown in Equation C) divided by the sum of these three values. All values used in Equation D are for first-order conditions of metabolism in the […]

rat hepatocytes = test: In vitro hepatocyte metabolic stability assay, rat hepatocytes; type: in vitro ADME; conditions: scaled from hepatocyte clearance at 1 μM
Experimental: In vitro evaluations of PFHxSA and PFHxS hepatocyte metabolic stability were performed in rat hepatocytes, as previously described. Also, human hepatocyte clearance data were obtained from an earlier study. Native PFHxSA was obtained from Alpha Chemistry (purity > 98.4%; Holbrook, NY, USA), and PFHxS was obtained from Ark Pharma Scientific Limited (purity > 95%; Cambridge, UK). Pooled, mixed-sex cryopreserved hepatocyte suspensions were employed in a substrate depletion approach, using a final assay concentration of 1 μM. […]
Targeted, quantitative analysis of in vitro hepatocyte metabolic stability and plasma protein binding assay samples was conducted on a Waters (Milford, MA, USA) Xevo-TQS micro ultra-high-performance liquid chromatography tandem mass spectrometry system (UPLC-MS/MS), modified with a PFAS analysis kit. Samples were analyzed in negative ion mode with UniSpray ionization. Samples were analyzed in triplicate, with a reference compound included to evaluate assay performance. […]
Intrinsic hepatic clearance (Clint) and fraction unbound in plasma (fup) were calculated from the experimental point estimate data as described in Dobreniecki et al.. […] Renal clearance was calculated using the glomerular filtration rate (a species-dependent constant) and the fraction unbound in blood (fub), estimated by adjusting the experimental fup for blood/plasma partitioning. […]

[2] = set-up: method as in Smeltz et al. [60]; conditions: ref Smeltz et al. [60], cited from earlier work; for fup (fraction unbound in plasma): Human plasma; for fub (fraction unbound in blood): Human
[3] = Ultracentrifugation plasma protein binding assay, rat plasma; type: in vitro ADME; conditions: for fraction unbound at 1 h, 10 µM: both sexes, SD
Experimental: Human and rat plasma were evaluated for plasma protein binding of PFHxSA and PFHxS using ultracentrifugation. Data generated in human plasma were obtained from an earlier study; for this study, data were generated in rat plasma following the same protocol as described by Smeltz et al.. SD rat plasma (pooled, mixed sex) was obtained from a commercial vendor (BioIVT, Westbury, NY, USA). Briefly, PFHxSA and PFHxS were added to the plasma to achieve a final assay concentration of 10 µM. Following a 1 h 37 °C incubation, 1 mL aliquots from each plasma solution were drawn in triplicate and transferred to polycarbonate ultracentrifuge tubes. These samples underwent ultracentrifugation (Beckman OptimaMax; Beckman Coulter Inc., Indianapolis, IN, USA) at 850,000× g for 4 h at 37 °C; after completion, the aqueous fraction (AF) was collected by transferring the supernatant to a new tube. Two sets of samples of the original PFAS-spiked whole plasma were also collected after a 1 h or a 5 h incubation at 37 °C. All samples were combined with 3 volumes of ice-cold ACN containing relevant internal standard, vigorously mixed, then centrifuged at 12,000× g for 10 min at 4 °C. Supernatants were collected and then stored at <−70 °C until analysis.
Targeted, quantitative analysis of in vitro hepatocyte metabolic stability and plasma protein binding assay samples was conducted on a Waters (Milford, MA, USA) Xevo-TQS micro ultra-high-performance liquid chromatography tandem mass spectrometry system (UPLC-MS/MS), modified with a PFAS analysis kit. Samples were analyzed in negative ion mode with UniSpray ionization. Samples were analyzed in triplicate, with a reference compound included to evaluate assay performance. A CORTECS T3 column (Waters; 3 mm × 100 mm, 2.7 µm) was used for chromatographic separation with a flow rate of 0.6 mL/min and a temperature of 55 °C. Gradient elution was used with mobile phase A (95:5 H2O/ACN) and mobile phase B (95:5 ACN/H2O), each with 2.5 mM of ammonium acetate added. More details are provided in Smeltz et al..
Intrinsic hepatic clearance (Clint) and fraction unbound in plasma (fup) were calculated from the experimental point estimate data as described in Dobreniecki et al.. Steady-state concentrations (Css) were derived based on zero-order uptake of an assumed daily dose from the gut (assuming 100% intestinal bioavailability) but considering hepatic clearance and non-metabolic renal clearance. Renal clearance was calculated using the glomerular filtration rate (a species-dependent constant) and the fraction unbound in blood (fub), estimated by adjusting the experimental fup for blood/plasma partitioning. The Css calculations, along with underlying species-specific physiologic scalars, are detailed in SI Texts S6 and S7.

[4] = blood (estimated from fup in plasma), Rat, fup adjusted for blood/plasma partitioning, read-out: fub (fraction unbound in blood)
[5] = Rat plasma, 10 µM, ultracentrifugation, read-out: fup (fraction unbound in plasma)

Structure (SMILES) | Css (steady-state concentration) [1] [µM] | CL renal [1] [mL/min] | Predicted Css in humans higher than rats [1] | IVIVE-derived Css lower for PFHxS compared to PFHxSA ([1]; human) [fold] | Clhep (hepatic clearance) (rat hepatocytes) [L/h] | fup (fraction unbound in plasma) [2] | fub (fraction unbound in blood) [2] | fraction unbound at 1 h, 10 µM [3, 4] | fraction unbound at 1 h, 10 µM [3, 5] | Plasma binding of PFHxS higher than PFHxSA ([3]; rat plasma) [%]
O=S(=O)(O)C(F)(F)C(F)(F)C(F)(F)C(F)(F)C(F)(F)C(F)(F)F [PFHxS, perfluorohexane sulfonic acid] | 669 | 0.183 | 3- to 10 fold | 2.25 | 0 | 0.0009 ^1 | 0.0016 ^1 | 0.0014 | 0.0008 | 25
NS(=O)(=O)C(F)(F)C(F)(F)C(F)(F)C(F)(F)C(F)(F)C(F)(F)F [PFHxSA, Perfluorohexanesulfonamide] | 1510 | 0.0817 | 3- to 10 fold | – | 0.0000449 | 0.0004 ^1 | 0.0007 ^1 | 0.0018 | 0.001 | –
